US7838562B2, “Methods of inhibiting vascular permeability and apoptosis” (University of Connecticut, priority 2004, dated 2010)
Read-outs that look alike come from different tables or passages of the source.

Assays:
phospho-Akt = test: Western blot of Akt phosphorylation in HUVEC; type: cell-based, human; conditions: for time of maximum Akt phosphorylation levels: data not shown; for Akt phosphorylation with Pertussis toxin: incubation with Pertussis toxin; for increase in Akt phosphorylation levels: 100 nM, after 5 minutes
Source text: (§1) Endothelial cell morphogenesis, a phenomenon that requires endothelial cell migration, survival and adherens junction assembly, is mediated by the ligand-dependent activation of S1P1 and S1P3 receptors. […] The effects of FTY720-P and analogs on Akt and ERK phosphorylation in HUVEC were studied in a Western blot analysis. Confluent cultures of HUVEC cells were serum starved for two hours in 0.1% ffa-BSA M199 before treatments. Then, they were washed with ice-cold phosphate buffered saline (PBS) containing 1 mM sodium fluoride and 1 mM sodium orthovanadate and homogenized in radioimmunoprecipitation assay buffer (0.1% sodium dodecyl sulfate (SDS), 0.5% sodium deoxycholate, 1% NP-40, 1 mM sodium orthovanadate, 50 mM β-glycerophosphate and 1× protease inhibitor cocktail). Samples were centrifuged 10,000×g for 10 minutes, and protein concentrations of supernatants were determined by Bradford assay (BioRad Protein Dye Reagent). Equal amounts of protein were separated on a 10% polyacrylamide gel and blotted to a nitrocellulose membrane. Immunoblot analysis was performed using Phospho-Akt, Akt, phospho-ERK1/2 or ERK-1/2 antibodies.

phospho-ERK-1/2 = test: Western blot of ERK-1/2 phosphorylation in HUVEC; type: cell-based, human; conditions: for time of maximum ERK phosphorylation levels: data not shown; for ERK-1 and ERK-2 phosphorylation with Pertussis toxin: incubation with Pertussis toxin; for increase in ERK-1/2 phosphorylation levels: 100 nM, after 5 minutes
Source text: as §1

HUVEC [1] = test: apoptosis induced by serum deprivation in HUVEC (DNA fragmentation); type: cell-based, human; conditions: for anti-apoptotic effect with Pertussis toxin: Pertussis toxin treatment; for Emax at 0.01 µM: Homo sapiens, HUVEC, 10 nM, 8 hours serum deprivation, read-out: inhibition of DNA fragmentation (maximum effect)
Method: Since ERK-1 and ERK-2 activation is necessary for the survival effect of S1P in endothelial cells, it was tested if FTY720-P and its analog (R)-AFD could prevent apoptosis induced by serum deprivation in HUVEC. In this test, HUVEC cells were labeled with {methyl-^3H}-thymidine (1 μCi/ml) for 16 hours. Then, they were washed and 0.1% ffa-BSA M199 containing the different treatments was added. After 8 hours, fragmented DNA was solubilized and quantified as described.

VE-cadherin = VE-cadherin localization by immunofluorescence in HUVEC; type: cell-based, human; conditions: 30 minutes; 10 nM (S1P 100 nM)
Method: The effects of FTY720-P and (R)-AFD on the localization of VE-cadherin were studied using immunofluorescence analysis. In this study, 2×10^5 cells were plated in 35 millimeter glass bottom petri dishes. Three days later, the cells were washed and serum starved for 3 hours before treatments. Then, the cells were washed with ice-cold PBS, fixed, and immunofluorescence analysis with VE-cadherin antibody was conducted (1 μg/ml Santa Cruz). The primary antibody staining was visualized with Rhodamine-conjugated goat anti-mouse (1:1000, Cappel) IgG. Confocal microscopy was conducted on a Zeiss LSM 510 laser-scanning confocal microscope. Rhodamine fluorescence was excited using a 543 nm Helium/Neon laser and emitted fluorescence was detected with a […] long-pass filter.

[2] = test system: Mouse embryonic endothelial cells; test: VEGF-induced paracellular permeability (Transwell, FITC-dextran); type: cell-based; conditions: 100 nM, 1 hr pretreatment, 45 minute time point, VEGF 50 ng/ml
Method: Several studies have shown that VE-cadherin could be an important determinant of vascular permeability. […] A cellular system was used to assess the effects of S1P, FTY720-P and (R)-AFD on vascular permeability. Mouse embryonic endothelial cells (5×10^4) were cultured for 2 days in Transwell polycarbonate filters (6.5 mm diameter, 0.4 μm pores; Costar). Culture medium was replaced with serum/phenol red-free DMEM (HEPES buffer, L-glutamine, and pyridoxine hydrochloride) (0.1 mL upper chamber and 0.6 mL lower chamber). […] FITC-dextran (average MW=2,000 kDa), was added to the upper compartment either in the absence or presence of murine recombinant VEGF (50 ng/ml). Media from lower wells were taken after indicated time periods (5-45 minutes). Samples were placed in black solid bottom 96 well plates (Costar) and fluorescence intensities were measured using CytoFluor(R) fluorescence multi-well plate reader (Applied Biosystems) at 488 nm excitation. Data=mean±SE of duplicates. N=2. *p<0.01 VEGF vs. untreated. #p<0.01 treatments+VEGF vs. VEGF alone.

HUVEC [3] = test: HUVEC migration (96 well chemotaxis microchamber); conditions: for migration induced by conditioned medium: compound incubated with HUVEC for 3 hours, conditioned medium used as chemoattractant; for fold induction at 0.01 µM: read-out: migration, fold induction at maximum effect; for induced migration in presence of Pertussis toxin: Pertussis toxin 200 ng/mL; for induction of endothelial cell migration: compound used directly as chemoattractant, 4 hours
Method: Briefly, polycarbonate filters with a pore size of 8 micrometers (μm) were coated with 5 micrograms per milliliter (μg/ml) fibronectin. […] Approximately 5×10^4 cells suspended in M199 with 0.1% bovine serum albumin were placed in the upper compartment. The cells were allowed to migrate for 4 hours at 37° C. in a humidified chamber with 5% CO2. After the incubation period, the filter was removed, and cells were stained in 0.1% crystal violet and eluted with 10% acetic acid in 96-well plates.
After incubation, conditioned medium was removed, centrifuged at 1,000×g for 10 minutes, and used in the migration assay.

[4] = test system: kinase activity present in HUVEC (sphingosine kinase); test: in vitro kinase assay with total cell extract from HUVEC; type: biochemical, human
Method: To confirm that FTY720 and (R)-AAL are phosphorylated by endothelial cells, an in vitro kinase assay was performed with both total cell extract and conditioned medium from HUVEC. […] Cells were scraped at 4° C. with 400 μl of 25 mM HEPES pH 7.5, […], 1× protease inhibitor mixture, and disrupted by brief sonication. Cellular homogenates were centrifuged for 10 minutes, 4° C. at 20,000×g. In the kinase assay, 300 μl of conditioned medium (derived from 5×10^5 cells for 3 hours of incubation) or 10 μg of total cell extract from HUVEC were used as a source of kinase activity. […] Lipids were extracted and samples were resuspended in 50 μl of chloroform. Lipids were resolved by TLC on Silica Gel G60 using 1-butanol/acetic acid/water (60/20/20 volume/volume) buffer and quantified with a PhosphorImager (Molecular Dynamics).

[5] = test system: VEGF-induced vascular permeability; test: mouse ear microvascular permeability assay (VEGF-induced); type: in vivo, FVB/N mice; conditions: mice, single oral administration (gavage, 50 μg) 5 hours prior
Method: The role of plasma borne FTY720-P or (R)-AFD in the regulation of vascular permeability was tested in vivo. In order to test this possibility, an in vivo vascular permeability model was used in FTY720, (R)-AFD or (S)-AAL-pretreated mice. […] Five hours post-gavage, animals were anesthetized with 2% Avertin™ (0.5 cc/20 g) and infused through the tail vein with 100 μl FITC-dextran (5 mg/ml, 165 kDa). Animals were placed on a warming table under a fluorescent dissecting microscope (Zeiss STV11, Zeiss, Inc.) and the central vessels in the ear were imaged. Control saline or mouse vascular endothelial growth factor (mVEGF, 10 ng/ml) was injected subdermally into the middle ear using a 30 gauge needle (30 μl). Ear vasculature was then imaged with fixed exposure times in a stationary position from 5 minutes to 120 minutes post-injection. Fluorescence images were then quantified using pixel-based threshold in ImageProPlus (Media Cybernetics, Inc.) and quantified.

SK2 = target: T1, SK2 (Mus musculus, UniProt Q9JIA7)
T1 sequence (Q9JIA7 1-617): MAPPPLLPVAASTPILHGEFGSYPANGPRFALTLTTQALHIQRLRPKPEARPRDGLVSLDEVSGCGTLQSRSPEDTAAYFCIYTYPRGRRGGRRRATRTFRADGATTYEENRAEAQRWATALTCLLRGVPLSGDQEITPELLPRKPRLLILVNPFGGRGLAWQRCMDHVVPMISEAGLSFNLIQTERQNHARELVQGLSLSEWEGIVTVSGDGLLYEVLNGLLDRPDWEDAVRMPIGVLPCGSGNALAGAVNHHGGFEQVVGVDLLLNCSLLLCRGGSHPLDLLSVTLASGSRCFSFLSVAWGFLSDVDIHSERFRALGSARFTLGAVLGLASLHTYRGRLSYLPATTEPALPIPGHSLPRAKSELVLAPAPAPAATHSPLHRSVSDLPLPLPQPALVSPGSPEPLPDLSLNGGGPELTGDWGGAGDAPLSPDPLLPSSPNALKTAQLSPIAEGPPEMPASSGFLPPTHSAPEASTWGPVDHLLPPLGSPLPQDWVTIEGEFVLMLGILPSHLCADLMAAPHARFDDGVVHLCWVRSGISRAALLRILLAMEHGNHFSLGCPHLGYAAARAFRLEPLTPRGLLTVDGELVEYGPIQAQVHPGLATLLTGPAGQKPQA

Compound	time of maximum Akt phosphorylation levels (phospho-Akt) [min]	Akt phosphorylation with Pertussis toxin (phospho-Akt)	time of maximum ERK phosphorylation levels (phospho-ERK-1/2) [min]	ERK-1 and ERK-2 phosphorylation with Pertussis toxin (phospho-ERK-1/2)	anti-apoptotic effect with Pertussis toxin (HUVEC [1])	VE-cadherin localization at cell-cell contact regions / translocation to adherens junctions (VE-cadherin)	inhibition of VEGF-induced paracellular permeability [2]	inhibition of vascular permeability induced by VEGF [5]	migration induced by conditioned medium (HUVEC [3])	increase in Akt phosphorylation levels (phospho-Akt) [fold]	Akt phosphorylation (in words) (phospho-Akt; 5 minute stimulation)	increase in ERK-1/2 phosphorylation levels (phospho-ERK-1/2) [fold]	ERK-1/2 phosphorylation (in words) (phospho-ERK-1/2; 5 minute stimulation)	concentration of maximum anti-apoptotic effect (HUVEC [1]) [nM]	Emax at 0.01 µM (HUVEC [1]) [%]	concentration of maximum effect on migration (HUVEC [3]) [nM]	fold induction at 0.01 µM (HUVEC [3]; Homo sapiens, HUVEC)	induced migration in presence of Pertussis toxin (HUVEC [3])	induction of endothelial cell migration (HUVEC [3])	also measured
CCCCCCCCCCCCC/C=C/[C@@H](O)[C@@H](N)COP(=O)(O)O [S1P, Sphingosine-1-phosphate, reference compound]	5	blocked by incubation with Pertussis toxin	5	blocked by incubation with Pertussis toxin	blocked by Pertussis toxin treatment	comparable to that observed for S1P	profoundly inhibited													fold induction at 0.1 µM (HUVEC [3]; Homo sapiens, HUVEC, read-out: migration, fold induction): 14
CCCCCCCOc1ccc(CC[C@@](C)(N)CO)cc1 (stereo in doubt) [AAL, 2-amino-2-methyl-4-[4-heptoxy-phenyl]butane-1-ol]																				Akt phosphorylation (in words) (phospho-Akt): did not induce phospho-Akt or phospho-ERK-1/2 levels; ERK-1/2 phosphorylation (in words) (phospho-ERK-1/2): did not induce phospho-Akt or phospho-ERK-1/2 levels
CCCCCCCOc1ccc(CC[C@](C)(N)CO)cc1 [(S)-AAL, 2-amino-2-methyl-4-[4-heptoxy-phenyl]butane-1-ol]								but not (S)-AAL also potently inhibited vascular permeability in vivo	did not induce migration after incubation with endothelial cells											phosphorylation of the substrate ([4]; HUVEC kinase activity, 100 μM): undetectable; phosphorylation of the substrate (SK2; SK2-[…]T extract, 100 μM): barely detectable
CCCCCCCCc1ccc(CCC(N)(CO)COP(=O)(O)O)cc1 (stereo not drawn) [FTY720-P]	5	blocked by incubation with Pertussis toxin	5	blocked by incubation with Pertussis toxin	blocked by Pertussis toxin treatment	increase in VE-cadherin localization at the cell-cell contact regions	profoundly inhibited			3.7	higher than the one induced by S1P	9.3	higher than the one induced by S1P	10	~70	10	13	blocked by Pertussis toxin	potent chemoattractants for HUVEC	
CCCCCCCOc1ccc(CC[C@@](C)(N)CO)cc1 [(R)-AAL, 2-amino-2-methyl-4-[4-heptoxy-phenyl]butane-1-ol]						did not induce VE-cadherin translocation to the adherens junctions		potently inhibited vascular permeability in vivo	activated into potent chemoattractants for endothelial cells										Neither FTY720 nor its structural analog (R)-AAL induced endothelial cell migration	specific activity (phosphorylation of the substrate) ([4]; HUVEC total cell extract, 100 μM FTY720 or AAL, 20 μM sphingosine, 30 minutes): 15 ± 0.93 pmol/mg/min; specific activity (phosphorylation of the substrate) (SK2; SK2-[…]T, 100 μM FTY720 or (R)-AAL, 20 μM sphingosine): 199.5 pmol/min/mg
CCCCCCCOc1ccc(CC[C@@](C)(N)COP(=O)(O)O)cc1 [(R)-AFD]	5	blocked by incubation with Pertussis toxin	5	blocked by incubation with Pertussis toxin	blocked by Pertussis toxin treatment	increase in VE-cadherin localization at the cell-cell contact regions	profoundly inhibited			4.5	higher than the one induced by S1P	8.2	higher than the one induced by S1P	10	~70	10	9	blocked by Pertussis toxin	potent chemoattractants for HUVEC	
